Legend:
[1] = radiochemical stability in vehicle by HPLC; format: physicochemical; conditions: conditions of formulation, storage at room temperature
Protocol: By this method, the final radiolabeled compound can be obtained with a radiochemical purity greater than 98% in 100-110 min with a yield that can reach 25% (decay corrected). It has been noticed that an uncompleted evaporation of the solvents used for the purification of [^18F]Fluoroethyltosylate hampers the second step and conducts to lower yields. Specific activity of productions was in the range of […]. The radiolabeled compound is stable in the conditions of formulation as radiochemical purity still greater than 95% 20 h after production with a storage at room temperature.
(§1) After radiosynthesis, the stability of the radiotracer was evaluated by HPLC both in its vehicle and in rat plasma. Compound (I) was formulated in physiologic serum/ethanol with the respective proportion 87.5/12.5 (v/v). A mixture of compounds (I) (i.e. radiolabelled) and (Ia) (i.e. cold analogue) was stable for up to 20 hours at room temperature in its vehicle, only one peak being detected at the expected retention time. In rat plasma two peaks were detected: one at 3.15 minutes and one at 8.02 minutes (corresponding to a mixture of compounds (I) and (Ia)) after an incubation at +37° C. for 4 hours.

plasma stability by HPLC = format: in vitro ADME, rat; conditions: checked up to 4 h
Protocol: as §1

[2] = biodistribution by ex vivo γ-counting in Sprague Dawley rats
Protocol: To evaluate the biodistribution of the pure S (II) and R (III) enantiomers compared to compound (I), dynamic PET scan imaging and ex vivo gamma counting were performed on Sprague Dawley rats. Animals were injected with the radiotracer solution diluted in NaCl 0.9% to prepare a solution of activity 4-6 MBq (gamma-counting experiments) or 11-13 MBq (PET imaging experiments) in a volume of 300-400 or 600-800 μL, respectively. Radioactivity content in all biological samples was determined with scintillation γ-counter (Cobra 4180, Perkin-Elmer Inc.).
At the light of the biodistribution data of compound (I), the biodistribution of the R (III)- and S (II)-enantiomers was assessed by γ-counting in the organs in which the accumulation of compound (I) was prominent (that is: blood, heart, kidneys, liver, stomach, small intestine and colon). Two timepoints were selected: 5 and 30 minutes post-injection. […] The higher uptakes of R enantiomer (III) and S enantiomer (II) in these organs were expected to be observed at early timepoints after injection, giving the highest signals in the γ-counter and therefore making the comparison of biodistribution data more relevant. Besides, as PET images were acquired with compound (I), PET imaging was included in the evaluation of the biodistribution of R enantiomer and S enantiomer. This gave the opportunity to had one additional timepoint at 4 hours post-injection for collection of major organs and determination of radioactivity content by ex vivo γ-counting.

[3] = system: human lung tumors (wild type EGFR, L858R mutated or exon 19 deleted EGFR); test: autoradiography on human frozen tumor sections; conditions: ATP at 10 mM
Excerpt: Three types of human lung tumors were included: tumors harboring wild type EGFR and tumors carrying L858R mutated or exon 19 deleted EGFR genes.

WT NCI-H441 tumors = test: in vivo specificity: competition for uptake of Compound (I); parameters: species or system rats; conditions: gefitinib 2 mg/rat or Compound (Ia) 1 mg/rat

CC(C)[C@@H]1NC(=O)Cc2ccc(Cl)cc2Nc2ncnc3cc(OCC[18F])c(cc23)OCCCNC1=O [Compound (II)]
radiochemical purity 20 h after production [1]: greater than 95% | Plasmatic stability (plasma stability by HPLC): without significant degradation | uptake in liver ([2]; 5 minutes post injection): 0.97±0.92 % ID/g | uptake in small intestine ([2]; 5 minutes post injection): 0.08±0.09 % ID/g | uptake in blood ([2]; 5 minutes post-injection): 0.11±0.01 % ID/g | uptake in heart ([2]; 5 minutes post-injection): 1.35±0.35 % ID/g | uptake in kidneys ([2]; 5 minutes post-injection): 6.89±0.52 % ID/g | uptake in stomach ([2]; 5 minutes post-injection): 0.72±0.38 % ID/g | uptake in liver ([2]; 30 minutes post injection): 0.15±0.03 % ID/g | uptake in heart ([2]; 30 minutes post-injection): 0.19±0.08 % ID/g | uptake in kidneys ([2]; 30 minutes timepoint): 1.04±0.17 % ID/g | uptake in stomach ([2]; 30 minutes timepoint): 0.20±0.05 % ID/g | uptake in stomach ([2]; four hours post-injection): 2.39±2.31 % ID/g | uptake in small intestine ([2]; thirty minutes post-injection): 0.08±0.07 % ID/g

Nc1ncnc2c1ncn2[C@@H]1O[C@H](COP(=O)(O)OP(=O)(O)OP(=O)(O)O)[C@@H](O)[C@H]1O [ATP, reference compound]
competition with the binding of Compound (I) on frozen tumor sections [3]: totally abolished the binding of Compound (I)

COc1cc2ncnc(Nc3ccc(F)c(Cl)c3)c2cc1OCCCN1CCOCC1 [Gefitinib, gefitinib, reference compound]
change of uptake of Compound (I) after competition (WT NCI-H441 tumors): +16%
